Values quoted from earlier work as cited in patent publication EP0699249B1, “METHODS FOR TREATING NON-COTTON-CONTAINING FABRICS WITH CELLULASE” (GENENCOR INTERNATIONAL, INC., priority 1994, dated 1995).

Molecular target: CBH I and CBH II from Trichoderma longibrachiatum
Conditions: competitive inhibition of CBH components

- Ki: ~1000 µM
SMILES: O=C[C@H](O)[C@@H](O)[C@H](O[C@@H]1O[C@H](CO)[C@@H](O)[C@H](O)[C@H]1O)[C@H](O)CO [cellobiose]
